Data published in patent US20200277301A1 (ALFASIGMA S.P.A., priority 2005, published 2020).

Columns and labels:
[1] = in vivo; parameters: species or system Beagle female dogs; details: female, Beagle, dog, po, 100 mg/kg
Protocol: Eight pure-bred Beagle females dogs having 20 weeks of age and weighing between 5.0 and 7.5 kg have been divided into two groups of four.
Each sample has been transferred into a tube containing heparin as anticoagulant and has been centrifuged; the plasma has been divided into two aliquots, each of 500 μl, and has been frozen at −20° C.
Tmax=time at which the Cmax is reached;
AUC=area under the concentration-time curve calculated through the linear trapezoidal rule.

[2] = Hygroscopicity of the polymorphous forms; type: physicochemical; details: absorb water in a reversible way under suitable pressure and ambient humidity
Source text: Both the forms δ and ε of the rifaximin are hygroscopic, they absorb water in a reversible way during the time in the presence of suitable conditions of pressure and humidity in the ambient and are susceptible of transformation to other forms.

CO[C@H]1/C=C/O[C@@]2(C)Oc3c(C)c(O)c4c(O)c(c5c(nc6cc(C)ccn65)c4c3C2=O)NC(=O)/C(C)=C\C=C\[C@H](C)[C@H](O)[C@@H](C)[C@@H](O)[C@@H](C)[C@H](OC(C)=O)[C@@H]1C [Polymorph δ, rifaximin]
AUC0-24 Mean [1]: 801 ng·h/mL | Cmax Mean [1]: 308.31 ng/mL | Tmax Mean [1]: 2 h | Cmax ([1]; Cmax): 308 ng/mL | hygroscopicity (in words) [2]: hygroscopic

CO[C@H]1/C=C/O[C@@]2(C)Oc3c(C)c(O)c4c(O)c(c5c(nc6cc(C)ccn65)c4c3C2=O)NC(=O)/C(C)=C\C=C\[C@H](C)[C@H](O)[C@@H](C)[C@@H](O)[C@@H](C)[C@H](OC(C)=O)[C@@H]1C [Polymorph ε, rifaximin]
AUC0-24 Mean [1]: 42 ng·h/mL | Cmax Mean [1]: 6.86 ng/mL | Tmax [1]: 4 h | hygroscopicity (in words) [2]: hygroscopic
